# pIC50: −log10 of the molar value.
# Tested on: 994946-033-R-J1-PDC complex spheroid viability
# Test: Anticancer human tumor 994946-033-R-J1-PDC patient-derived melanoma cell line growth inhibition [POLQ]
# Settings: for pIC50: curve of first compound; for viability, T/C: stronger effect = lower value
# Procedure, shortened: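 PDC + HUVEC + MSC complex spheroids; POLQ inhibitors ± partner drugs; top conc. at/near clinical Cmax, else 10 microM (SN-38 1 microM), half-log dilutions; 37 degrees C, 5% CO2.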
# [1] = second compound 0.0316 µM, first compound 0.0316 µM
# [2] = second compound 0.0316 µM, first compound 0.1 µM
# [3] = second compound 0.0316 µM, first compound 0.316 µM
# [4] = second compound 0.0316 µM, first compound 1 µM
# [5] = second compound 0.0316 µM, first compound 3.16 µM
# [6] = second compound 0.0316 µM, first compound 10 µM
# [7] = second compound 0.1 µM, first compound 0.0316 µM
# [8] = second compound 0.1 µM, first compound 0.1 µM
# [9] = second compound 0.1 µM, first compound 0.316 µM
# [10] = second compound 0.1 µM, first compound 1 µM
# [11] = second compound 0.1 µM, first compound 3.16 µM
# [12] = second compound 0.1 µM, first compound 10 µM
# [13] = second compound 0.316 µM, first compound 0.0316 µM
# [14] = second compound 0.316 µM, first compound 0.1 µM
# [15] = second compound 0.316 µM, first compound 0.316 µM
# [16] = second compound 0.316 µM, first compound 1 µM
# [17] = second compound 0.316 µM, first compound 3.16 µM
# [18] = second compound 0.316 µM, first compound 10 µM
# [19] = second compound 1 µM, first compound 0.0316 µM
# [20] = second compound 1 µM, first compound 0.1 µM
# [21] = second compound 1 µM, first compound 0.316 µM
# [22] = second compound 1 µM, first compound 1 µM
# [23] = second compound 1 µM, first compound 3.16 µM
# [24] = second compound 1 µM, first compound 10 µM
# [25] = second compound 3.16 µM, first compound 0.0316 µM
# [26] = second compound 3.16 µM, first compound 0.1 µM
# [27] = second compound 3.16 µM, first compound 0.316 µM
# [28] = second compound 3.16 µM, first compound 1 µM
# [29] = second compound 3.16 µM, first compound 3.16 µM
# [30] = second compound 3.16 µM, first compound 10 µM
# [31] = second compound 10 µM, first compound 0.0316 µM
# [32] = second compound 10 µM, first compound 0.1 µM
# [33] = second compound 10 µM, first compound 0.316 µM
# [34] = second compound 10 µM, first compound 1 µM
# [35] = second compound 10 µM, first compound 3.16 µM
# [36] = second compound 10 µM, first compound 10 µM
# 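Note: spheroids exposed to drugs for 7 days.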
# 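Throughout, for viability, T/C: 100% = DMSO vehicle treated spheroids.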
compound,measurement,setting,value
CCc1cc2c(N3CCc4c(cc(Cn5ccnc5)cc4-c4cn(C)nc4C(F)(F)F)C3=O)cc(C)nc2c(OC)n1 + Nc1ccc(C#CCN(C(=O)Cc2ncc(C(F)(F)F)cc2C(F)(F)F)c2ccc(F)cc2)nn1,pIC50,second compound 0.0316 µM,5.07
same,pIC50,second compound 0.1 µM,< 5.00
same,pIC50,second compound 0.316 µM,< 5.00
same,pIC50,second compound 1 µM,< 5.00
same,pIC50,second compound 3.16 µM,< 5.00
same,pIC50,second compound 10 µM,< 5.00
same,"viability, T/C",[1],81.9%
same,"viability, T/C",[2],107%
same,"viability, T/C",[3],72.6%
same,"viability, T/C",[4],68.3%
same,"viability, T/C",[5],103%
same,"viability, T/C",[6],44%
same,"viability, T/C",[7],78.7%
same,"viability, T/C",[8],102%
same,"viability, T/C",[9],94.4%
same,"viability, T/C",[10],93%
same,"viability, T/C",[11],71.2%
same,"viability, T/C",[12],54.3%
same,"viability, T/C",[13],73%
same,"viability, T/C",[14],79.8%
same,"viability, T/C",[15],75.5%
same,"viability, T/C",[16],87%
same,"viability, T/C",[17],64%
same,"viability, T/C",[18],89.1%
same,"viability, T/C",[19],98.6%
same,"viability, T/C",[20],71.5%
same,"viability, T/C",[21],89.5%
same,"viability, T/C",[22],51.8%
same,"viability, T/C",[23],78.5%
same,"viability, T/C",[24],72.2%
same,"viability, T/C",[25],93.4%
same,"viability, T/C",[26],84.3%
same,"viability, T/C",[27],81.9%
same,"viability, T/C",[28],65.7%
same,"viability, T/C",[29],86.5%
same,"viability, T/C",[30],65.5%
same,"viability, T/C",[31],107%
same,"viability, T/C",[32],96.1%
same,"viability, T/C",[33],106%
same,"viability, T/C",[34],89.2%
same,"viability, T/C",[35],69.9%
same,"viability, T/C",[36],49.9%
CCc1cc2c(N3CCc4c(cc(Cn5ccnc5)cc4-c4cn(C)nc4C(F)(F)F)C3=O)ccnc2c(OC)n1 + Nc1ccc(C#CCN(C(=O)Cc2ncc(C(F)(F)F)cc2C(F)(F)F)c2ccc(F)cc2)nn1,pIC50,second compound 0.0316 µM,< 5.00
same,pIC50,second compound 0.1 µM,< 5.00
same,pIC50,second compound 0.316 µM,< 5.00
same,pIC50,second compound 1 µM,< 5.00
same,pIC50,second compound 3.16 µM,< 5.00
same,pIC50,second compound 10 µM,< 5.00
same,"viability, T/C",[1],51.5%
same,"viability, T/C",[2],79.4%
same,"viability, T/C",[3],82%
same,"viability, T/C",[4],88.2%
same,"viability, T/C",[5],79.6%
same,"viability, T/C",[6],79%
same,"viability, T/C",[7],101%
same,"viability, T/C",[8],87.7%
same,"viability, T/C",[9],88.6%
same,"viability, T/C",[10],76.8%
same,"viability, T/C",[11],73.8%
same,"viability, T/C",[12],81.4%
same,"viability, T/C",[13],89.3%
same,"viability, T/C",[14],97.6%
same,"viability, T/C",[15],78.4%
same,"viability, T/C",[16],70.6%
same,"viability, T/C",[17],79.8%
same,"viability, T/C",[18],63.9%
same,"viability, T/C",[19],98.9%
same,"viability, T/C",[20],62.2%
same,"viability, T/C",[21],85.1%
same,"viability, T/C",[22],75%
same,"viability, T/C",[23],86.7%
same,"viability, T/C",[24],87.4%
same,"viability, T/C",[25],75.9%
same,"viability, T/C",[26],78%
same,"viability, T/C",[27],66.9%
same,"viability, T/C",[28],79.4%
same,"viability, T/C",[29],89.2%
same,"viability, T/C",[30],66.7%
same,"viability, T/C",[31],101%
same,"viability, T/C",[32],98.2%
same,"viability, T/C",[33],102%
same,"viability, T/C",[34],89.8%
same,"viability, T/C",[35],80.8%
same,"viability, T/C",[36],70.8%
COc1cc2cc(C(=O)CCC(=O)O)sc2cc1OC + Nc1ccc(C#CCN(C(=O)Cc2ncc(C(F)(F)F)cc2C(F)(F)F)c2ccc(F)cc2)nn1,pIC50,second compound 0.0316 µM,< 5.00
same,pIC50,second compound 0.1 µM,< 5.00
same,pIC50,second compound 0.316 µM,< 5.00
same,pIC50,second compound 1 µM,< 5.00
same,pIC50,second compound 3.16 µM,< 5.00
same,pIC50,second compound 10 µM,< 5.00
same,"viability, T/C",[1],81.7%
same,"viability, T/C",[2],99.5%
same,"viability, T/C",[3],92.4%
same,"viability, T/C",[4],83.2%
same,"viability, T/C",[5],86.7%
same,"viability, T/C",[6],67.9%
same,"viability, T/C",[7],126%
same,"viability, T/C",[8],101%
same,"viability, T/C",[9],102%
same,"viability, T/C",[10],92.1%
same,"viability, T/C",[11],87.2%
same,"viability, T/C",[12],87.1%
same,"viability, T/C",[13],111%
same,"viability, T/C",[14],86%
same,"viability, T/C",[15],87.6%
same,"viability, T/C",[16],109%
same,"viability, T/C",[17],72.3%
same,"viability, T/C",[18],96%
same,"viability, T/C",[19],93.5%
same,"viability, T/C",[20],98%
same,"viability, T/C",[21],80.1%
same,"viability, T/C",[22],79.4%
same,"viability, T/C",[23],88.9%
same,"viability, T/C",[24],95.8%
same,"viability, T/C",[25],116%
same,"viability, T/C",[26],75.5%
same,"viability, T/C",[27],111%
same,"viability, T/C",[28],96.3%
same,"viability, T/C",[29],94.9%
same,"viability, T/C",[30],66.8%
same,"viability, T/C",[31],80.5%
same,"viability, T/C",[32],81.9%
same,"viability, T/C",[33],90.7%
same,"viability, T/C",[34],91.8%
same,"viability, T/C",[35],115%
same,"viability, T/C",[36],78.8%
